Patent US11130960B2, “Methods for conferring or enhancing herbicide resistance on plants and/or alga with protoporphyrinogen oxidase variants” (FARM HANNONG CO., LTD., priority 2014, dated 2021)

How the values were obtained:
CyPPO4 = test: Growth of transformed BT3(ΔPPO) E. coli in LB liquid medium (OD600); type: cell-based, Lyngbya sp. PCC 8106; details: 37° C., OD600 over culture time
Description: (§1) In Example 3, herbicide resistance of respective BT3(ΔPPO) strains transformed with the wild-type AtPPO1, mutant AtPPO1, CyPPO2, CyPPO4 or CyPPO8 gene was investigated on agar media containing different herbicides, and in this Example, herbicide resistance of the strains was investigated in LB liquid media containing different herbicides.
(§2) HV-50 autoclave from Hirayama, HS2100A electronic scale from Hansung Instrument, CB-30V clean bench from Jeio Tech, JSI-200CL incubator from JSR, MQ-200 photometer from Apogee, and 1210 type UV-visible spectrophotometer from Thermo Fisher Scientific were used. The autoclave was used under conditions of 121° C. and 15 minutes, and the incubator was used at 37° C. with lighting of 160˜200 μmol m^−2s^−1 for a culture time of 13.5 hours. The UV-visible spectrophotometer was used at 600 nm.
(§3) Tiafenacil (M.W. 511.87 g/mol), Saflufenacil (M.W. 500.85 g/mol), and Fomesafen (M.W. 438.76 g/mol) used in the experiment were purchased from Dongbu Farm Hannong Co., Ltd, Sigma, and Sigma, respectively. These drugs were prepared at 200 mM concentration in 100% acetone, and stored at −20° C., respectively. Luria-Bertani(LB) medium (10 g/L of Bacto-Tryptone, 5 g/L of Yeast extract, 10 g/L of sodium chloride) and an antibiotic Chloramphenicol (Duchefa) were used.
(§4) For seed culture of E. coli transformed with respective genes, single colonies thereof were cultured in 3 ml of LB broth containing chloramphenicol for 12 hours, and they were diluted with LB broth to absorbance (OD600) of 1.5. Next, chloramphenicol and 500 μl of the seed culture of the transformed E. coli were added to 250 ml of LB liquid medium, and 50 ml of the culture was added to each 250 ml-flask. Each flask was treated with varying concentrations (0, 10 μM, 50 μM, 100 μM) of herbicide stocks (Tiafenacil, Saflufenacil, Fomesafen), and then incubated at 37° C. and 200 rpm. Absorbance (OD600) was measured using a spectrophotometer every 1.5 hours. The experiment was repeated three times, and mean values thereof were given in a graph. Error bars represent standard error of three repeats.

CyPPO2 = test: as above; type: cell-based, Oscillatoria nigro-viridis PCC 7112; details: 37° C., OD600 over culture time
Description: as §1, §2, §3, §4

wild-type Col-0 plants = test: Herbicide spray test on Arabidopsis thaliana plants; type: in vivo; details: for outcome of plants at 7 days after spraying: 2-3 ml of 0.5 μM Tiafenacil, 1 μM Saflufenacil, or 3 μM Fomesafen per plant grown about 4 weeks
Description: To examine resistance of the transplanted T1 plants against PPO-based herbicides, the plants were grown for about 3-4 weeks, and then treated with herbicides prior to flower stalk elongation. […] Therefore, 1 μM tiafenacil was evenly applied at an amount proper for the number of plant individuals. After 7 days, resistance of the transformants against PPO-based herbicides was examined.
To examine whether herbicide resistance traits are maintained in the next generations of plants, respective T2 generation plants of Arabidopsis thaliana which were transformed with CyPPO2, CyPPO4 and CyPPO8 genes were subjected to an herbicide resistance test. 2-3 ml of 0.5 μM Tiafenacil, 1 μM Saflufenacil, or 3 μM Fomesafen was sprayed onto each Arabidopsis thaliana plant grown for about 4 weeks.

wild-type AtPPO1 = target: T1, wild-type AtPPO1 (Arabidopsis thaliana, UniProt P55826); test: Growth of transformed BT3(ΔPPO) E. coli in LB liquid medium (OD600); type: cell-based; details: 37° C., OD600 over culture time
T1 construct: expressed in transfected cells; host or cells: E. coli BT3(ΔPPO), pACBB vector
T1 sequence (P55826 35-537): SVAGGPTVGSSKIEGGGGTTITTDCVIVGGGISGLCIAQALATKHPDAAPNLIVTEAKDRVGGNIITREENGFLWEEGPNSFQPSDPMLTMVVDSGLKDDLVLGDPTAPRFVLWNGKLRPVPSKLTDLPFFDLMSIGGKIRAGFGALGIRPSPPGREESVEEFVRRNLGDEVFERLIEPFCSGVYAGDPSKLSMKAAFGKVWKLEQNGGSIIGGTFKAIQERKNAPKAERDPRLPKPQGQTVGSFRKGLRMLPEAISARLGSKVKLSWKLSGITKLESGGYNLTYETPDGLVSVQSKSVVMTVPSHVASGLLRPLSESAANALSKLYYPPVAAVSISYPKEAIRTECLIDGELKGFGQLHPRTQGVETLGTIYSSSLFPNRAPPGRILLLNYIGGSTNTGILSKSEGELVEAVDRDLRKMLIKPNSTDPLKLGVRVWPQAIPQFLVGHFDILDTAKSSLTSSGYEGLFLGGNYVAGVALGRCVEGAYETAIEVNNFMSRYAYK
Description: as §1, §2, §3, §4

Mutant AtPPO1 = target: T2, Mutant AtPPO1 (Arabidopsis thaliana, UniProt P55826, S305L/Y426M); test: as above; type: cell-based; details: 37° C., OD600 over culture time
T2 construct: expressed in transfected cells; host or cells: E. coli BT3(ΔPPO), pACBB vector
T2 sequence (P55826 35-537 S305L/Y426M): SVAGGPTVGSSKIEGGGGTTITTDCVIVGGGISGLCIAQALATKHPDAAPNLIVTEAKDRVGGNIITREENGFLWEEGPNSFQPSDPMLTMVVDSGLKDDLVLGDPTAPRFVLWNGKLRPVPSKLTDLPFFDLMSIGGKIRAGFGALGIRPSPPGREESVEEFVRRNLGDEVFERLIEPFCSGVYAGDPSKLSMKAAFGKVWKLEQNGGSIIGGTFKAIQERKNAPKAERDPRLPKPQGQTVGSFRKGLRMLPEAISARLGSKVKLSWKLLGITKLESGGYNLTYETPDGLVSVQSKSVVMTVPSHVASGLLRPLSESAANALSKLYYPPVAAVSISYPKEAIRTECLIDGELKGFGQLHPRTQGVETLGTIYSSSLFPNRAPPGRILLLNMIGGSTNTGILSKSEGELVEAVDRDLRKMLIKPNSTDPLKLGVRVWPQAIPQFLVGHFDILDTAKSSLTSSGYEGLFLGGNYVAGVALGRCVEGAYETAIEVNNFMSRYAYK
Description: as §1, §2, §3, §4

In the case of `CS(=O)(=O)NC(=O)c1cc(Oc2ccc(C(F)(F)F)cc2Cl)ccc1[N+](=O)[O-]` [Fomesafen], the “concentration by which the strain normally grew” value (CyPPO4) is reported as ≤ 100 µM, the “concentration by which the strain normally grew” value (CyPPO2) is reported as ≤ 100 µM and the “outcome of plants at 7 days after spraying” value (“outcome of plants at 7 days” for short) (wild-type Col-0 plants) is reported as “killed”. The “concentration at which growth inhibition began” value (wild-type AtPPO1) was 50 µM and the “concentration by which the strain normally grew” value (Mutant AtPPO1) was ≤ 100 µM.
For `CC(C)N(C)S(=O)(=O)NC(=O)c1cc(-n2c(=O)cc(C(F)(F)F)n(C)c2=O)c(F)cc1Cl` [Saflufenacil], the “concentration by which the strain normally grew” value (CyPPO4) was ≤ 100 µM, the “concentration by which the strain normally grew” value (CyPPO2) was ≤ 100 µM and the “outcome of plants at 7 days” value (wild-type Col-0 plants) was “killed”. For the same compound, the “concentration at which the strain hardly grew” value (wild-type AtPPO1) was ≥ 10 µM and the “concentration by which the strain normally grew” value (Mutant AtPPO1) was ≤ 100 µM.
With `COC(=O)CCNC(=O)C(C)Sc1cc(-n2c(=O)cc(C(F)(F)F)n(C)c2=O)c(F)cc1Cl` (centres unmarked) [Tiafenacil] the “concentration by which the strain normally grew” value (CyPPO4) was ≤ 100 µM, the “concentration by which the strain normally grew” value (CyPPO2) was ≤ 100 µM and the “outcome of plants at 7 days” value (wild-type Col-0 plants) was “killed”. For the same compound, the “outcome of plants after herbicide treatment” value (wild-type Col-0 plants; 2-3 ml of 1 μM tiafenacil (+0.05% Silwet L-77) per plant) was “killed”, the “concentration at which the strain hardly grew” value (wild-type AtPPO1) was ≥ 10 µM and the “concentration at which growth inhibition was observed” value (Mutant AtPPO1) was ≥ 50 µM. For the same compound, the “concentration at which the strain grew” value (Mutant AtPPO1) was 10 µM.
